For 63 compounds, inhibition and MIC results are on record in ChEMBL document CHEMBL3244039, “Antiviral activity of some beta-diketones. 2. Aryloxy alkyl diketones. In vitro activity against both RNA and DNA viruses” (1977).

Each structure is given as a SMILES string. Values after ≈ are worked out from the molar mass of the structure shown. Active and inactive are the calls of the source. The rule behind the calls is not given here.

Test [1] relates to Human alphaherpesvirus 2. Put plainly: Antiviral activity against Herpes simplex virus 2 assessed as inhibition of virus-induced cytopathic effect at 50 ug/ml after 72 hrs by two-fold dilution method. It counts as functional, organism-based. On the technique in general: Protection from cytopathic effect is a common read-out in antiviral testing.
Test [2] has as its system Equine rhinovirus. Put plainly: Antiviral activity against Equine rhinovirus assessed as inhibition of virus-induced cytopathic effect after 48 hrs by two-fold dilution method.
Test [3] deals with Human alphaherpesvirus 2. Kind of test: Antiviral activity against Herpes simplex virus 2 Curtis assessed as inhibition of virus-induced cytopathic effect at 37 degC after 72 hrs by two-fold dilution method. Format: functional. Conditions: Human alphaherpesvirus 2, Curtis.
In test [4] the test system is Human alphaherpesvirus 1. Put plainly: Antiviral activity against Herpes simplex virus 1 Sheely assessed as inhibition of virus-induced cytopathic effect at 37 degC after 72 hrs by two-fold dilution method. It counts as functional. Conditions: Human alphaherpesvirus 1, Sheely.
Test [5] deals with Human alphaherpesvirus 2. Put plainly: Antiviral activity against Herpes simplex virus 2 assessed as inhibition of virus-induced cytopathic effect after 72 hrs by two-fold dilution method. Format: functional. The conditions noted are these: Human alphaherpesvirus 2, 72 h.

For the compound `CCC(=O)C(CCCCOc1ccc(OC)cc1Cl)C(=O)CC`, the inhibition result in test [1] was “inactive”.
For `CCC(=O)C(CCCCCOc1ccc2c(c1)OCO2)C(=O)CC`, the inhibition entry in test [1] was “inactive”.
In the case of `CCC(=O)C(CCCCCCOc1ccc2c(c1)OCO2)C(=O)CC`, the inhibition entry in test [1] is “inactive”. The MIC in test [2] is 3 µg/mL (≈ 8.61 µM).
With `Nc1ccn([C@@H]2O[C@H](CO)[C@@H](O)[C@@H]2O)c(=O)n1` [CYTARABINE], the MIC in test [3] and in test [4] was < 3 µg/mL throughout.
Regarding `CCC(=O)C(CCCCCCOc1ccc(C(=O)O)cc1)C(=O)CC`, the inhibition entry in test [1] was “inactive”. The MIC in test [2] was 6 µg/mL (≈ 17.2 µM).
For the compound `CCC(=O)C(CCCCCOc1ccc(OC)cc1Cl)C(=O)CC`, the MIC in test [2] and in test [5] was 6 µg/mL (≈ 16.9 µM) throughout.
With `CCC(=O)C(CCCCCCOc1ccc(OC(=O)c2ccc(OC)cc2)cc1)C(=O)CC`, in test [1], the inhibition result is “inactive”. Besides, in test [2], the MIC was found to be 6 µg/mL (≈ 13.2 µM).
On to `CCC(=O)C(CCCCCCOc1ccc(OC(=O)CCCN2CCOCC2)cc1)C(=O)CC`, for which the MIC in test [2] and in test [5] was 12 µg/mL (≈ 25.2 µM) in each case.
Turning to `CCC(=O)C(CCCCCCOc1ccccc1Cl)C(=O)CC`, the values for the MIC in test [2] and in test [5] were 3 µg/mL (≈ 8.85 µM) and 6 µg/mL (≈ 17.7 µM), respectively.
As to `Nc1ncnc2c1ncn2[C@@H]1O[C@H](CO)[C@@H](O)[C@@H]1O` [VIDARABINE], the MIC in test [3] and in test [4] was 12 µg/mL (≈ 44.9 µM) each time.
With `CCC(=O)C(CCCCCCOc1ccc(C(C)=O)cc1OC)C(=O)CC`, the MIC in test [5] stood at 12 µg/mL (≈ 31.9 µM).
For `CCC(=O)C(CCCCCCOc1ccc(OCCN(CC)CC)cc1)C(=O)CC`, the inhibition result in test [1] is “inactive”. In test [2], the MIC amounted to 25 µg/mL (≈ 59.6 µM).
Turning to `CCC(=O)C(CCCOc1ccc2c(c1)OCO2)C(=O)CC`, in test [1], the inhibition entry was “inactive”.
Turning to `CCC(=O)C(CCCCCCOc1cc(Cl)c(OC)cc1Cl)C(=O)CC`, the MIC worked out at 3 µg/mL (≈ 7.44 µM) in test [2] and 6 µg/mL (≈ 14.9 µM) in test [5].
In the case of `CCC(=O)C(CCCCCCOc1ccc(OCCO)cc1Cl)C(=O)CC`, the figures for the MIC in test [2] and in test [5] were 3 µg/mL (≈ 7.52 µM) and 1.5 µg/mL (≈ 3.76 µM), respectively.
As for `CCC(=O)C(CCCCCCOc1ccc(OCc2ccccc2)cc1Cl)C(=O)CC`, the MIC in test [2] and in test [5] was 3 µg/mL (≈ 6.74 µM) in each case.
`CCOC(=O)c1ccc(OCCCCCCC(C(=O)CC)C(=O)CC)cc1`: the MIC in test [2] stood at 6 µg/mL (≈ 15.9 µM); in test [5], 3 µg/mL (≈ 7.97 µM).
Turning to `CCC(=O)C(CCCCCCOc1ccc(Br)cc1)C(=O)CC`, the values for the MIC in test [2] and in test [5] were 3 µg/mL (≈ 7.83 µM) and 6 µg/mL (≈ 15.7 µM), respectively.
For the compound `CCC(=O)C(CCCCCCOc1ccccc1I)C(=O)CC`, the inhibition entry in test [1] is “inactive”. Besides, the MIC in test [2] was 12 µg/mL (≈ 27.9 µM).
As to `CCC(=O)C(CCCCCCOc1ccc([N+](=O)[O-])cc1Cl)C(=O)CC`, the MIC in test [2] and in test [5] was 3 µg/mL (≈ 7.82 µM) throughout.
Regarding `COc1ccc(OCCCCCCC(C(=O)C(C)(C)C)C(=O)C(C)(C)C)c(Cl)c1`, in test [5], the MIC stood at 6 µg/mL (≈ 14.1 µM).
As for `CCC(=O)C(CCCCCCOc1ccc(SC)cc1)C(=O)CC`, the inhibition entry in test [1] is “inactive”. Further, in test [2], the MIC amounted to 3 µg/mL (≈ 8.56 µM).
As to `CCC(=O)C(CCCCCCOc1ccc(I)cc1)C(=O)CC`, the MIC in test [2] was 3 µg/mL (≈ 6.97 µM); in test [5], 6 µg/mL (≈ 13.9 µM).
Turning to `CCC(=O)C(CCCCCCOc1cccc(I)c1)C(=O)CC`, the MIC in test [2] and in test [5] was 6 µg/mL (≈ 13.9 µM) in each case.
As for `CCC(=O)C(CCCCCCOc1ccc(OC)cc1)C(=O)CC`, the results for the MIC in test [2] and in test [5] were 6 µg/mL (≈ 17.9 µM) and 25 µg/mL (≈ 74.7 µM), respectively.
Take `CCC(=O)C(CCCCCCOc1c(I)cc(I)cc1I)C(=O)CC`: the MIC in test [2] was determined as 12 µg/mL (≈ 17.6 µM); in test [5] it was 6 µg/mL (≈ 8.8 µM).
Turning to `CCC(=O)C(CCCCCCOc1ccccc1F)C(=O)CC`, the figures for the MIC in test [2] and in test [5] were 3 µg/mL (≈ 9.3 µM) and 12 µg/mL (≈ 37.2 µM), respectively.
Turning to `CCC(=O)C(CCCCCCOc1ccc(O)cc1Cl)C(=O)CC`, in test [5], the MIC worked out at 6 µg/mL (≈ 16.9 µM).
As for `CCC(=O)C(CCCCCCOc1ccc(OC(=O)c2ccc(C)cc2)cc1)C(=O)CC`, the inhibition result in test [1] was “inactive”. For the same compound, the MIC in test [2] is 12 µg/mL (≈ 27.4 µM).
Turning to `CCC(=O)C(CCCCCCCOc1ccc2c(c1)OCO2)C(=O)CC`, in test [1], the inhibition entry was “inactive”. Moreover, the MIC in test [2] amounted to 6 µg/mL (≈ 16.6 µM).
Take `CCC(=O)C(CCCCCCCCCOc1ccc(OC)cc1Cl)C(=O)CC`: the MIC in test [2] amounted to 6 µg/mL (≈ 14.6 µM); in test [5] it was 12 µg/mL (≈ 29.2 µM).
For the compound `CCC(=O)C(CCCCCCOc1ccc(OCc2ccccc2)cc1)C(=O)CC`, the MIC in test [2] and in test [5] was 1.5 µg/mL (≈ 3.65 µM) in each case.
As to `CCC(=O)C(CCCCCCOc1cc(Cl)cc(OC)c1)C(=O)CC`, the MIC is 6 µg/mL (≈ 16.3 µM) in test [2] and 12 µg/mL (≈ 32.5 µM) in test [5].
For the compound `COc1ccc(OCCCCCCC(C(C)=O)C(C)=O)c(Cl)c1`, the MIC in test [5] came out at 12 µg/mL (≈ 35.2 µM).
`CCC(=O)C(CCCCCCOc1ccccc1C(F)(F)F)C(=O)CC`: the MIC in test [2] and in test [5] was 6 µg/mL (≈ 16.1 µM) each time.
With `O=c1[nH]c(=O)n([C@H]2C[C@H](O)[C@@H](CO)O2)cc1I` [IDOXURIDINE], the MIC in test [3] and in test [4] was 6 µg/mL (≈ 16.9 µM) in each case.
`CCC(=O)C(CCOCCOc1ccc(OC)cc1Cl)C(=O)CC`: the results for the MIC in test [2] and in test [5] were 25 µg/mL (≈ 70.1 µM) and 12 µg/mL (≈ 33.6 µM), respectively.
As for `CCC(=O)C(CCCCCCOc1ccc(S(N)(=O)=O)cc1)C(=O)CC`, in test [5], the MIC was found to be 12 µg/mL (≈ 31.3 µM).
Turning to `CCC(=O)C(CCCCCCOc1c(F)c(F)c(F)c(F)c1F)C(=O)CC`, the MIC in test [5] worked out at 12 µg/mL (≈ 30.4 µM).
`CCC(=O)C(CCCCCCOc1ccccc1[N+](=O)[O-])C(=O)CC`: the MIC in test [2] and in test [5] was 6 µg/mL (≈ 17.2 µM) in each case.
Take `CCC(=O)C(CCCCCCOc1c(Cl)c(Cl)c(Cl)c(Cl)c1Cl)C(=O)CC`: the inhibition entry in test [1] is “inactive”. Besides, in test [2], the MIC was 12 µg/mL (≈ 25.2 µM).
On to `CCC(=O)C(CCCCCCOc1ccc(Cl)cc1Cl)C(=O)CC`, for which the MIC in test [5] is 3 µg/mL (≈ 8.04 µM).
With `CCC(=O)C(CCCCCCOc1cccc([N+](=O)[O-])c1)C(=O)CC`, the inhibition result in test [1] was “inactive”. Further, the MIC in test [2] was found to be 3 µg/mL (≈ 8.59 µM).
For the compound `CCC(=O)C(CCCCCCCCOc1ccc(OC)cc1Cl)C(=O)CC`, the MIC in test [2] and in test [5] was 3 µg/mL (≈ 7.56 µM) in each case.
Consider `CCC(=O)C(CCCCCCOc1ccc(Cl)cc1)C(=O)CC`, for which the inhibition entry in test [1] was “inactive”. Further, the MIC in test [2] was 3 µg/mL (≈ 8.85 µM).
As to `CCC(=O)C(CCCCCCOc1ccc(OC(C)=O)cc1Cl)C(=O)CC`, the inhibition result in test [1] was “inactive”. Moreover, the MIC in test [2] was 12 µg/mL (≈ 30.2 µM).
As for `CCC(=O)C(CCCCCCCCCCOc1ccc(OC)cc1Cl)C(=O)CC`, the MIC is 12 µg/mL (≈ 28.2 µM) in test [2] and 6 µg/mL (≈ 14.1 µM) in test [5].
As to `CCC(=O)C(CCCCCCCCOc1ccc2c(c1)OCO2)C(=O)CC`, the inhibition result in test [1] was “inactive”.
Take `CCC(=O)C(CCCCCCOc1ccc(F)cc1)C(=O)CC`: the MIC in test [2] and in test [5] was 3 µg/mL (≈ 9.3 µM) each time.
For `CCC(=O)C(CCCCCCOc1ccc(F)cc1Cl)C(=O)CC`, the figures for the MIC in test [2] and in test [5] were 3 µg/mL (≈ 8.41 µM) and 6 µg/mL (≈ 16.8 µM), respectively.
The like results for `CCC(=O)C(CCCCCCOc1ccc(Br)cc1Cl)C(=O)CC` were, in that order, 3 µg/mL (≈ 7.18 µM) and 3 µg/mL (≈ 7.18 µM).
Turning to `CCC(=O)C(CCCCCCOc1ccc(OC)cc1Br)C(=O)CC`, the MIC is 3 µg/mL (≈ 7.26 µM) in test [2] and 6 µg/mL (≈ 14.5 µM) in test [5].
The like results for `CCC(=O)C(CCCCCCOc1ccc(CC)cc1)C(=O)CC` were, in that order, 6 µg/mL (≈ 18 µM) and 12 µg/mL (≈ 36.1 µM).
As to `CCC(=O)C(CCCCCCOc1cccc(C(F)(F)F)c1)C(=O)CC`, the inhibition entry in test [1] was “inactive”.
With `CCC(=O)C(CCCCCCOc1ccc(OC(=O)c2ccccc2)cc1)C(=O)CC`, the inhibition entry in test [1] is “inactive”.
As for `CCC(=O)C(CCCCCCCOc1ccc(OC)cc1Cl)C(=O)CC`, the MIC is 3 µg/mL (≈ 7.83 µM) in test [2] and 6 µg/mL (≈ 15.7 µM) in test [5].
Regarding `CCC(=O)C(CCCCOc1ccc2c(c1)OCO2)C(=O)CC`, the inhibition entry in test [1] is “inactive”. Moreover, the MIC in test [2] was 12 µg/mL (≈ 37.5 µM).
With `CCC(=O)C(CCCCCCOc1ccc(OC)cc1[N+](=O)[O-])C(=O)CC`, the MIC amounted to 3 µg/mL (≈ 7.91 µM) in test [2] and 6 µg/mL (≈ 15.8 µM) in test [5].
The matching figures for `CCC(=O)C(CCCCCCOc1ccc(O)cc1)C(=O)CC`: 12 µg/mL (≈ 37.4 µM) and 3 µg/mL (≈ 9.36 µM).
Turning to `CCC(=O)C(CCCCCCOc1ccc(C#N)cc1)C(=O)CC`, the inhibition result in test [1] is “inactive”.
For the compound `CCOC(=O)C(CCCCCCOc1ccc(OC)cc1Cl)C(C)=O` (configuration not stated), in test [1], the inhibition entry was “inactive”. Also, the MIC in test [2] is 6 µg/mL (≈ 16.2 µM).
In the case of `CCC(=O)C(CCCCCCOc1ccccc1)C(=O)CC`, the MIC in test [2] was determined as 6 µg/mL (≈ 19.7 µM); in test [5], 1.5 µg/mL (≈ 4.93 µM).
For the compound `CCC(=O)C(CCCCCCOc1cccc(N(C)C)c1)C(=O)CC`, the inhibition result in test [1] is “inactive”. The MIC in test [2] was determined as 6 µg/mL (≈ 17.3 µM).
